Test results taken from patent publication US20190309272A1, “Genetically Modified Cell Lines Including a TP53 Modification and Methods of Use” (UNIVERSITY OF SOUTH CAROLINA, priority 2018, published 2019).
Counter-ions that a name gives are not always drawn. Starred links: 1 amine or outer side, 2 acyl side, 3 side chain; linkers in the order of their positions; H or OH if unused. Positions of bridges follow the written chain, without caps; N, C: chain ends. Non-standard residues stand in square brackets, D forms with d. Residues, ends and D or L forms follow the SMILES beside them. Chains are numbered I, II in the order given. Actinocin(9to1) = Cc1c2oc3c(C)ccc(C(=O)[*:1])c3nc-2c(C(=O)[*:2])c(N)c1=O; NMeV = CN[C@H](C(=O)O)C(C)C; Sar = CNCC(=O)O

What was measured:
Assay type in all cases: cell-based, Human
Conditions in all cases: ten-day drug treatment, 156.25 nM to 10 μM, resazurin fluorescence
MCF7 WT Parental pool = experiment: Drug screening, resazurin, MCF7 wild type parental pool
MCF7 TP53 KO 3.4 pool = experiment: Drug screening, resazurin, TP53 KO 3.4 pool
MCF7 TP53 KO 5.6 pool = experiment: Drug screening, resazurin, TP53 KO 5.6 pool

| Compound | MCF7 WT Parental pool (AUC) (MCF7 WT Parental pool) | TP53 KO 3.4 pool (AUC) (MCF7 TP53 KO 3.4 pool) | TP53 KO 5.6 pool (AUC) (MCF7 TP53 KO 5.6 pool) |
| --- | --- | --- | --- |
| Nc1ccn([C@@H]2O[C@H](CO)[C@@H](O)[C@@H]2O)c(=O)n1 [Cytarabine Hydrochloride] | 4.771 | – | – |
| O=C(/C=C/c1cccc(S(=O)(=O)Nc2ccccc2)c1)NO [Belinostat] | 1.423 | 1.525 | 1.322 |
| O=NN(CCCl)C(=O)NCCCl [Carmustine] | 9.622 | 9.826 | 9.965 |
| CC[C@]1(O)C[C@@H]2CN(CCc3c([nH]c4ccccc34)[C@@](C(=O)OC)(c3cc4c(cc3OC)N(C)[C@H]3[C@@](O)(C(=O)OC)[C@H](OC(C)=O)[C@]5(CC)C=CCN6CC[C@]43[C@@H]65)C2)C1 [Vinblastine Sulfate] | 1.393 | 1.54 | 1.382 |
| Cc1[nH]c2ccccc2c1CCNCc1ccc(/C=C/C(=O)NO)cc1 [Panobinostat] | 0.6418 | 0.5862 | 0.5971 |
| C[C@]12CC[C@@H]3c4ccc(OC(=O)N(CCCl)CCCl)cc4CC[C@H]3[C@@H]1CC[C@@H]2OP(=O)(O)O [Estramustine Phosphate Sodium] | 9.864 | 9.491 | 9.348 |
| CO[C@H]1C[C@@H]2CC[C@@H](C)[C@@](O)(O2)C(=O)C(=O)N2CCCC[C@H]2C(=O)O[C@H]([C@H](C)C[C@@H]2CC[C@@H](O)[C@H](OC)C2)CC(=O)[C@H](C)/C=C(\C)[C@@H](O)[C@@H](OC)C(=O)[C@H](C)C[C@H](C)/C=C/C=C/C=C/1C [Sirolimus] | 2.534 | 2.623 | 3.106 |
| CO[C@H]1C[C@@H]2CC[C@@H](C)[C@@](O)(O2)C(=O)C(=O)N2CCCC[C@H]2C(=O)O[C@H]([C@H](C)C[C@@H]2CC[C@@H](OCCO)[C@H](OC)C2)CC(=O)[C@H](C)/C=C(\C)[C@@H](O)[C@@H](OC)C(=O)[C@H](C)C[C@H](C)/C=C/C=C/C=C/1C [Everolimus] | 4.699 | 2.251 | 3.834 |
| CC[C@@]1(O)C(=O)OCc2c1cc1n(c2=O)Cc2cc3c(CN(C)C)c(O)ccc3nc2-1 [Topotecan Hydrochloride] | 0.7919 | 0.7814 | 0.8044 |
| O=P(O)(O)C(O)(Cn1ccnc1)P(=O)(O)O [Zoledronic Acid] | 9.222 | 9.268 | 9.417 |
| Nc1nc2[nH]cc(CCc3ccc(C(=O)N[C@@H](CCC(=O)O)C(=O)O)cc3)c2c(=O)[nH]1 [Pemetrexed Disodium Salt Heptahydrate] | 2.501 | 2.438 | 2.852 |
| Cc1c2oc3c(C)ccc(C(=O)N[C@@H]4C(=O)N[C@H](C(C)C)C(=O)N5CCC[C@H]5C(=O)N(C)CC(=O)N(C)[C@@H](C(C)C)C(=O)O[C@@H]4C)c3nc-2c(C(=O)N[C@@H]2C(=O)N[C@H](C(C)C)C(=O)N3CCC[C@H]3C(=O)N(C)CC(=O)N(C)[C@@H](C(C)C)C(=O)O[C@@H]2C)c(N)c1=O [Dactinomycin] (I: T[dV]P[Sar][NMeV] / II: T[dV]P[Sar][NMeV]; ester I:1-I:C, II:1-II:C; linker I:N-II:N via Actinocin(9to1)) | 2.01 | 1.588 | 1.65 |
| C#CCC(Cc1cnc2nc(N)nc(N)c2n1)c1ccc(C(=O)N[C@@H](CCC(=O)O)C(=O)O)cc1 (stereo partly shown) [Pralatrexate] | 2.822 | 2.774 | 2.86 |
| Dabrafenib Mesylate | 14.9 | 14.73 | – |
| CC(=O)Nc1cccc(-n2c(=O)n(C3CC3)c(=O)c3c(Nc4ccc(I)cc4F)n(C)c(=O)c(C)c32)c1 [Trametinib] | 7.726 | 6.641 | 8.533 |
| Nc1nc2nc[nH]c2c(=S)[nH]1 [Thioguanine] | 4.122 | – | – |
| CC1=C2C[C@H]3[C@@H](CC=C4C[C@@H](O)CC[C@@]43C)[C@@H]2CC[C@]12O[C@@H]1C[C@H](C)CN[C@H]1[C@H]2C [Clyclopamine] | 9.488 | 9.033 | 9.093 |
| O=C(c1cc(Cc2n[nH]c(=O)c3ccccc23)ccc1F)N1CCN(C(=O)C2CC2)CC1 [Olaparib] | 5.48 | 8.58 | 7.433 |
| O=C1CCC(N2C(=O)c3ccccc3C2=O)C(=O)N1 (stereo not shown) [Thalidomide] | 7.13 | 9.18 | 10.21 |

| Compound | MCF7 WT Parental pool (AUC) (MCF7 WT Parental pool) | TP53 KO 3.4 pool (AUC) (MCF7 TP53 KO 3.4 pool) | TP53 KO 5.6 pool (AUC) (MCF7 TP53 KO 5.6 pool) |
| --- | --- | --- | --- |
| Bleomycin Sulfate | 3.922 | 4.694 | 3.421 |
| C[C@]12CC[C@@H]3c4ccc(O)cc4C[C@@H](CCCCCCCCC[S+]([O-])CCCC(F)(F)C(F)(F)F)[C@H]3[C@@H]1CC[C@@H]2O (stereo partly shown) [Fulvestrant] | 4.6 | 3.797 | 4.145 |
| C[C@@H](Oc1cc(-c2cnn(C3CCNCC3)c2)cnc1N)c1c(Cl)ccc(F)c1Cl [Crizotinib] | 2.549 | 2.325 | 2.941 |
| Arsenic Trioxide | 5.018 | 5.242 | 5.373 |
| COc1nc(N)nc2c1ncn2[C@@H]1O[C@H](CO)[C@@H](O)[C@@H]1O [Nelarabine] | 8.659 | 11.04 | 10.08 |
| COc1cc(Nc2c(C#N)cnc3cc(OCCCN4CCN(C)CC4)c(OC)cc23)c(Cl)cc1Cl [Bosutinib] | 8.686 | 9.254 | 9.588 |
| C=CC(=O)Nc1cc(Nc2nccc(-c3cn(C)c4ccccc34)n2)c(OC)cc1N(C)CCN(C)C [Osimertinib] | 4.149 | 4.056 | 4.044 |
| N.N.O=C([O-])C1(C(=O)[O-])CCC1.[Pt+2] [Carboplatin] | 8.83 | 9.302 | 8.343 |
| CN(C)c1nc(N(C)C)nc(N(C)C)n1 [Altretamine] | 8.059 | 8.874 | 8.473 |
| CS(=O)(=O)CCNCc1ccc(-c2ccc3ncnc(Nc4ccc(OCc5cccc(F)c5)c(Cl)c4)c3c2)o1 [Laptinib] | 5.364 | 5.619 | 5.857 |
| CCCCCOC(=O)Nc1nc(=O)n([C@@H]2O[C@H](C)[C@@H](O)[C@H]2O)cc1F [Capecitabine] | 9.004 | 9.208 | 9.284 |
| O=C(O)CCCc1ccc(N(CCCl)CCCl)cc1 [Chlorambucil] | 16.08 | 16.5 | 17.6 |
| CN1CCN(C(=O)c2ccc3cc(CCNc4ncnc5ccc(C#N)cc45)ccc3c2)CC1 [SenexinB] | 5.203 | 6.869 | 6.954 |
| CC(=O)[C@]1(O)Cc2c(O)c3c(c(O)c2[C@@H](O[C@H]2C[C@H](N)[C@H](O)[C@H](C)O2)C1)C(=O)c1ccccc1C3=O [Idarubicin Hydrochloride] | 0.958 | – | – |
| CNC(=O)c1cc(Oc2ccc(NC(=O)Nc3ccc(Cl)c(C(F)(F)F)c3)cc2)ccn1 [Sorafenib] | 3.981 | – | – |
| CO[C@H]1C[C@@H]2CC[C@@H](C)[C@@](O)(O2)C(=O)C(=O)N2CCCC[C@H]2C(=O)O[C@H]([C@H](C)C[C@@H]2CC[C@@H](OC(=O)C(C)(CO)CO)[C@H](OC)C2)CC(=O)[C@H](C)/C=C(\C)[C@@H](O)[C@@H](OC)C(=O)[C@H](C)C[C@H](C)/C=C/C=C/C=C/1C [Temsirolimus] | 2.486 | – | – |
| C=C1C[C@@H]2[C@H](CC[C@]3(C)C(=O)CC[C@@H]23)[C@@]2(C)C=CC(=O)C=C12 [Exemestane] | 8.564 | – | – |
| OC[C@H]1O[C@@H](n2cnc3c2NC=NC[C@H]3O)C[C@@H]1O [Pentostatin] | 10.31 | – | – |
| O=C1c2c(O)ccc(O)c2C(=O)c2c(NCCNCCO)ccc(NCCNCCO)c21 [Mitoxantrone] | 2.338 | – | – |
